Source: ChEMBL document CHEMBL1201862, “PubChem BioAssay data set” (2004)
Active and inactive are the calls of the source.

Experiments:
[1] = molecular target: T1, Histone-lysine N-methyltransferase NSD2 (Homo sapiens, UniProt O96028); format: biochemical
T1 sequence (O96028 whole entry): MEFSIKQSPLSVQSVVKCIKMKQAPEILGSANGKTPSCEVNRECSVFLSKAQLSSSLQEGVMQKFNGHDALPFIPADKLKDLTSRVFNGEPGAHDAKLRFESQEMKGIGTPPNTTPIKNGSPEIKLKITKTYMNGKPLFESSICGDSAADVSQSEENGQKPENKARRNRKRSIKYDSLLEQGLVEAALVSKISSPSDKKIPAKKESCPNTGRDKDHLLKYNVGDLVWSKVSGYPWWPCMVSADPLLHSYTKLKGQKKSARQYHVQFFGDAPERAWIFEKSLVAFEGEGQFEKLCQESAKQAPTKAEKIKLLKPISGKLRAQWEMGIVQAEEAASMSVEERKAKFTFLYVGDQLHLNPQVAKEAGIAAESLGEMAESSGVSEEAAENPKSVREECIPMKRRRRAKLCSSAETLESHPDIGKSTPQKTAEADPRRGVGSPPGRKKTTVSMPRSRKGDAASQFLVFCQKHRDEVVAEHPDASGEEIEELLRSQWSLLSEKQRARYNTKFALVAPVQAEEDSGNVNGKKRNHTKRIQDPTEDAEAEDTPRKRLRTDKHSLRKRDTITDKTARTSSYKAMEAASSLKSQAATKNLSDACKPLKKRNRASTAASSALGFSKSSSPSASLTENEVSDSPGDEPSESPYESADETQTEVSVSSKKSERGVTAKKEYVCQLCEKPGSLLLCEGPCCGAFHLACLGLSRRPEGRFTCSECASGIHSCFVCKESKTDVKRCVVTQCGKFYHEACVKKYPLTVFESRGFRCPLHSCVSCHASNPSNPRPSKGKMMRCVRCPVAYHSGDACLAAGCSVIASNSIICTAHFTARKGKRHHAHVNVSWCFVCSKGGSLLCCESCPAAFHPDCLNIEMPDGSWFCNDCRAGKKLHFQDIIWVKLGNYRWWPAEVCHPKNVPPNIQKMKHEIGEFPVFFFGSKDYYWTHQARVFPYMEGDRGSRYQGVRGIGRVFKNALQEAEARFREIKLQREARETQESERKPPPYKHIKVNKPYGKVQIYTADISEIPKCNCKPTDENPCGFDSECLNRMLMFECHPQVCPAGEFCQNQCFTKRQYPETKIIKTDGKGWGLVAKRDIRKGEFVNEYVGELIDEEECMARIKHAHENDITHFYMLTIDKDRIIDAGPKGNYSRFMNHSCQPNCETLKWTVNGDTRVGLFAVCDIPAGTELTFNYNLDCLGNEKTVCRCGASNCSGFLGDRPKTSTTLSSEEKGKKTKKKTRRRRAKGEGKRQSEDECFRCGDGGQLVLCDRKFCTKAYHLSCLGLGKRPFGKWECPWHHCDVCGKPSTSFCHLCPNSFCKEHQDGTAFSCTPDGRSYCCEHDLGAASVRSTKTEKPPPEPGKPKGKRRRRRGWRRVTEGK

[2] = molecular target: Tyrosine-protein kinase JAK2 (Homo sapiens, UniProt O60674); format: functional;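 note: JAK2 tested as one member of a kinase panel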
Chain of Tyrosine-protein kinase JAK2 (O60674 whole entry): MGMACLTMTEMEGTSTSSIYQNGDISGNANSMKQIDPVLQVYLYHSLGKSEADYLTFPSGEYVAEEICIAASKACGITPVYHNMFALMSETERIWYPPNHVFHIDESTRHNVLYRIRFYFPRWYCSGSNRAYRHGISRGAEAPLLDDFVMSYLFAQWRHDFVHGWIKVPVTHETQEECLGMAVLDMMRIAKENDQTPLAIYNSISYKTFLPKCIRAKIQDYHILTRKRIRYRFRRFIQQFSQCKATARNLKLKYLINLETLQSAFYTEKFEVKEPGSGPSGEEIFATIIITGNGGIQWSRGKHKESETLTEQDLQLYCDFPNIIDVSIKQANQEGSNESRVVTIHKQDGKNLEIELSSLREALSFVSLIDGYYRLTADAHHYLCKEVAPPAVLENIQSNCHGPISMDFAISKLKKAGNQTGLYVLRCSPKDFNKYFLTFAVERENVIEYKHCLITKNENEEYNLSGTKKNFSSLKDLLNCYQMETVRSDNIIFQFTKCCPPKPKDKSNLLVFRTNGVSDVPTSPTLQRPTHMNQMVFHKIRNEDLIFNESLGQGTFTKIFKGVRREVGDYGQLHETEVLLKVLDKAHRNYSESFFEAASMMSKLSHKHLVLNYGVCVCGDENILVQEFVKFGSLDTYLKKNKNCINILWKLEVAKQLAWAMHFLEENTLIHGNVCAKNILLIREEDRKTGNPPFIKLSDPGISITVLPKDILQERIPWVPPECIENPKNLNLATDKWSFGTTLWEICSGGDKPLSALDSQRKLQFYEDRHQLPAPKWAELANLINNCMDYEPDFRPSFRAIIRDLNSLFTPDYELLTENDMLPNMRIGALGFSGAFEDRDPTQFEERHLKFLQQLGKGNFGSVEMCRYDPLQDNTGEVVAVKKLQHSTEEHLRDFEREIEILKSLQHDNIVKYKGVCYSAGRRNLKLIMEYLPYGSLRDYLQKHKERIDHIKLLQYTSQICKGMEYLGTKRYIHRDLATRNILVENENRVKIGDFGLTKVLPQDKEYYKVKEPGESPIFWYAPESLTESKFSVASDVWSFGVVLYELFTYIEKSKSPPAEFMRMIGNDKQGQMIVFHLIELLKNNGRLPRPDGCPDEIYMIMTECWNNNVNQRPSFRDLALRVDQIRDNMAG

[3] = molecular target: Insulin-like growth factor 1 receptor (Homo sapiens, UniProt P08069); experiment: Navigating the Kinome. Panel member name: IGF1R; format: functional
Chain of Insulin-like growth factor 1 receptor (P08069 31-736 limits assumed): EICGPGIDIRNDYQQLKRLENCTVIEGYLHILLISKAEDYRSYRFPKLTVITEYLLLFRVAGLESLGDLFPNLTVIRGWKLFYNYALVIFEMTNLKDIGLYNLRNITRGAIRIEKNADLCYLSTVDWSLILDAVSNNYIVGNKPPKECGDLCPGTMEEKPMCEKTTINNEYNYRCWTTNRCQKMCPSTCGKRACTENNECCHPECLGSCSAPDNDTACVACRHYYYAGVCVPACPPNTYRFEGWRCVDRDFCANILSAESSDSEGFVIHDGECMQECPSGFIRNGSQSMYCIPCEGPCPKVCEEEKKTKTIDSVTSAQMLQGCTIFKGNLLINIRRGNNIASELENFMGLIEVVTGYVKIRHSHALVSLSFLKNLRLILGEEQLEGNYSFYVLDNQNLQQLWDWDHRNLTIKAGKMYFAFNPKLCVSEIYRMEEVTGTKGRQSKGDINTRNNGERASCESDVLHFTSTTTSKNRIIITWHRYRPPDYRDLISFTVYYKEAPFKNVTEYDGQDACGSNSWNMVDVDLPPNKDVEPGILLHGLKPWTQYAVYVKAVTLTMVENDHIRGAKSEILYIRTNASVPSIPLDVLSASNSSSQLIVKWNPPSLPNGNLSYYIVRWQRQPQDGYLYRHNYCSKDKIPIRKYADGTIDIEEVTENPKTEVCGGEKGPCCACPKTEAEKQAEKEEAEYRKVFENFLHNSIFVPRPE
Chain of Insulin-like growth factor 1 receptor (P08069 741-1367 limits assumed): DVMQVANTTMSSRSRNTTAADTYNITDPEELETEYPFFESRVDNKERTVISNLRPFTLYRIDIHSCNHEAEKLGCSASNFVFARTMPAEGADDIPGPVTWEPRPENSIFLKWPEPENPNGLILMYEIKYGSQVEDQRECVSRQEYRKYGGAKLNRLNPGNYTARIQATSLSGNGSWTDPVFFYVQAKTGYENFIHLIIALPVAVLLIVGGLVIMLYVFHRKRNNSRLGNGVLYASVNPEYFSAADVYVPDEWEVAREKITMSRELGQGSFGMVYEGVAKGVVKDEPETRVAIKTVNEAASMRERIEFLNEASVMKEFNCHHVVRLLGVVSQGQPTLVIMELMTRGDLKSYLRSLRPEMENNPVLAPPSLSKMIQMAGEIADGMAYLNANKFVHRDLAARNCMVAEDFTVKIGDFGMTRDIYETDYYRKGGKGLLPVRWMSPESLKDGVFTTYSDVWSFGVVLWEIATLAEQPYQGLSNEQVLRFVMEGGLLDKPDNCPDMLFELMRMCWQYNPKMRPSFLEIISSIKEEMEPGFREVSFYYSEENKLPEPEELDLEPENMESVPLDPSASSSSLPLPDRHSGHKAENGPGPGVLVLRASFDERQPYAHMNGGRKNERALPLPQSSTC

[4] = molecular target: Cyclin-dependent kinase 8 (Homo sapiens, UniProt P49336); experiment: Navigating the Kinome. Panel member name: CDK8; format: functional
[5] = molecular target: Protein kinase C theta type (Homo sapiens, UniProt Q04759); experiment: Navigating the Kinome. Panel member name: PRKCQ; format: functional
[6] = molecular target: Casein kinase I isoform alpha (Homo sapiens, UniProt P48729); format: functional
[7] = molecular target: Dual specificity tyrosine-phosphorylation-regulated kinase 1B (Homo sapiens, UniProt Q9Y463); experiment: Navigating the Kinome. Panel member name: DYRK1B; format: functional
Chain of Dual specificity tyrosine-phosphorylation-regulated kinase 1B (Q9Y463 whole entry): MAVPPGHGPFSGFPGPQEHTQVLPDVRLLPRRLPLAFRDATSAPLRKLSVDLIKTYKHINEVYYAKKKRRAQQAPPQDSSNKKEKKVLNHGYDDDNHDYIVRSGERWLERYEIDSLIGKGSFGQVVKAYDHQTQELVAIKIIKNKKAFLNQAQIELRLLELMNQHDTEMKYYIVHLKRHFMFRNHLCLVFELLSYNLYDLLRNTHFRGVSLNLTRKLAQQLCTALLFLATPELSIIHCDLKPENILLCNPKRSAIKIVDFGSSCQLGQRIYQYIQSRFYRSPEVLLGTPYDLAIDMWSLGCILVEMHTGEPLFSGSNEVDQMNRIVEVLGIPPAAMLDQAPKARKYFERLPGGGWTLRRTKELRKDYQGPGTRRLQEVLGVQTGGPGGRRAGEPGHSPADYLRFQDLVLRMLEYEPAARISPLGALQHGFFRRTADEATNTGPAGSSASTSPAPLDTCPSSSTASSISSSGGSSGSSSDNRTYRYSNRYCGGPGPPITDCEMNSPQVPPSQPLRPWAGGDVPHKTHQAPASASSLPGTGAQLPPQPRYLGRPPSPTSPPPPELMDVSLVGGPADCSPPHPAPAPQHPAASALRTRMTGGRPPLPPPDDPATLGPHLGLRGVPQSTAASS

[8] = molecular target: Tyrosine-protein kinase Fyn (Homo sapiens, UniProt P06241); format: functional
[9] = molecular target: Death-associated protein kinase 3 (Homo sapiens, UniProt O43293); format: functional;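 note: measured as one member of a kinome-wide profiling panel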
[10] = molecular target: Cyclin-dependent kinase 7 (Homo sapiens, UniProt P50613); format: functional;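 note: value comes from a kinome-wide kinase profiling panel in which CDK7 is one member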
Chain of Cyclin-dependent kinase 7 (P50613 whole entry): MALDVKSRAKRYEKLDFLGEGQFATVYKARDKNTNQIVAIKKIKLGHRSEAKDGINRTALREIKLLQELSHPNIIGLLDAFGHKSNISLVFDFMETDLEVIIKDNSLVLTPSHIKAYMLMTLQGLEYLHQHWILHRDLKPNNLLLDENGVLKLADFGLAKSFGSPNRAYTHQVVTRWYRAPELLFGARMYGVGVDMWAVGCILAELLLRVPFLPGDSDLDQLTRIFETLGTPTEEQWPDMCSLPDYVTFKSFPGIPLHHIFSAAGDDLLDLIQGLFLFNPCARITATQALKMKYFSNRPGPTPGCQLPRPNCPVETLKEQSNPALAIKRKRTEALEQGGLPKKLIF

[11] = molecular target: Activated CDC42 kinase 1 (Homo sapiens, UniProt Q07912); experiment: Navigating the Kinome. Panel member name: ACK1; format: functional
[12] = molecular target: Activin receptor type-1 (Homo sapiens, UniProt Q04771); experiment: Navigating the Kinome. Panel member name: ACVR1; format: functional
[13] = molecular target: Rho-associated protein kinase 1 (Homo sapiens, UniProt Q13464); format: functional;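 note: measured within a broad kinome-wide panel profiling many kinases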
Chain of Rho-associated protein kinase 1 (Q13464 whole entry): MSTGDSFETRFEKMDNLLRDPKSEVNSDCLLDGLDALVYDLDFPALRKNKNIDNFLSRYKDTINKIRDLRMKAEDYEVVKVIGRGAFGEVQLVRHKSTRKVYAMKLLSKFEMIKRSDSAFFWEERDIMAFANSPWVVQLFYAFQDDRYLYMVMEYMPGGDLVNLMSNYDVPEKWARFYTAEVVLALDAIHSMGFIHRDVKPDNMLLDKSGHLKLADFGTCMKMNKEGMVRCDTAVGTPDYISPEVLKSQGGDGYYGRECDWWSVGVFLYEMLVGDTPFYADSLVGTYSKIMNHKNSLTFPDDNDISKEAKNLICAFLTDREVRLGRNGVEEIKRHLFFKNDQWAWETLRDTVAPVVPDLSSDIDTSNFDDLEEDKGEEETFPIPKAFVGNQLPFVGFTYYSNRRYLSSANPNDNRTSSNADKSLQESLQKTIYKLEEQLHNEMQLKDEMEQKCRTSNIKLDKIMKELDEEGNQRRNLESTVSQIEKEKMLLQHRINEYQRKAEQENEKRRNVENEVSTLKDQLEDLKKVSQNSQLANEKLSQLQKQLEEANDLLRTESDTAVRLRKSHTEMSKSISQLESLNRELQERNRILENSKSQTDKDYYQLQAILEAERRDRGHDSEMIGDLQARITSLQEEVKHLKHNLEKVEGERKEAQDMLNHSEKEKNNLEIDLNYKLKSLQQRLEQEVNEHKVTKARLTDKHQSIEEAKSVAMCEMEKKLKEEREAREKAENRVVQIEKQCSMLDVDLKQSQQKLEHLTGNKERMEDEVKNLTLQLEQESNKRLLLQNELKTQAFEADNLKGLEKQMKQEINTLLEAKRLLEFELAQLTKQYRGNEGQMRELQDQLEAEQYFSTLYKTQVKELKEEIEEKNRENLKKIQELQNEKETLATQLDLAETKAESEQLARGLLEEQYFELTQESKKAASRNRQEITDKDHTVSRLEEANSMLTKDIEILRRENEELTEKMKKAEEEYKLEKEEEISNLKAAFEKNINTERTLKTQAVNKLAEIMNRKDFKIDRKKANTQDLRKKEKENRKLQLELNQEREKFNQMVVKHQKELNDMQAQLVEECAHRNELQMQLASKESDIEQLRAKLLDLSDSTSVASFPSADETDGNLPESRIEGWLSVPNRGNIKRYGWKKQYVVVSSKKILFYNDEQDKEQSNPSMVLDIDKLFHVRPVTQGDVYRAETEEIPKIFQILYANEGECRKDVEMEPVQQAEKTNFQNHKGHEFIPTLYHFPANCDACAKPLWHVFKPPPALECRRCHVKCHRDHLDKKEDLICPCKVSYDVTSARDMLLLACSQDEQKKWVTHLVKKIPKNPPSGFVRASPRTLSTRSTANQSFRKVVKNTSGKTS

[14] = molecular target: ALK tyrosine kinase receptor (Homo sapiens, UniProt Q9UM73); format: functional;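 note: ALK tested as one member of a kinase panel screen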
[15] = molecular target: Glycogen synthase kinase-3 alpha (Homo sapiens, UniProt P49840); format: functional;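 note: GSK3A result taken from a broad kinome-wide kinase panel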
[16] = molecular target: Proto-oncogene tyrosine-protein kinase receptor Ret (Homo sapiens, UniProt P07949); format: functional;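 note: measured within a kinome-wide profiling panel, RET as the panel member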
[17] = molecular target: Serine/threonine-protein kinase Nek2 (Homo sapiens, UniProt P51955); format: functional
[18] = molecular target: Dual specificity mitogen-activated protein kinase kinase 1 (Homo sapiens, UniProt Q02750); experiment: Navigating the Kinome. Panel member name: MAP2K1; format: functional
[19] = molecular target: Hepatocyte growth factor receptor (Homo sapiens, UniProt P08581); format: functional;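 note: kinase panel profiling across the kinome, with MET as the panel member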
[20] = molecular target: Serine/threonine-protein kinase pim-1 (Homo sapiens, UniProt P11309); format: functional
[21] = molecular target: Mitogen-activated protein kinase 9 (Homo sapiens, UniProt P45984); format: functional;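 note: value from a kinome panel profiling assay, MAPK9 panel entry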
[22] = molecular target: T2, Aurora kinase A (Homo sapiens, UniProt O14965); format: functional;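 note: value from the Navigating the Kinome kinase panel profiling, panel entry STK6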
T2 sequence (O14965 whole entry): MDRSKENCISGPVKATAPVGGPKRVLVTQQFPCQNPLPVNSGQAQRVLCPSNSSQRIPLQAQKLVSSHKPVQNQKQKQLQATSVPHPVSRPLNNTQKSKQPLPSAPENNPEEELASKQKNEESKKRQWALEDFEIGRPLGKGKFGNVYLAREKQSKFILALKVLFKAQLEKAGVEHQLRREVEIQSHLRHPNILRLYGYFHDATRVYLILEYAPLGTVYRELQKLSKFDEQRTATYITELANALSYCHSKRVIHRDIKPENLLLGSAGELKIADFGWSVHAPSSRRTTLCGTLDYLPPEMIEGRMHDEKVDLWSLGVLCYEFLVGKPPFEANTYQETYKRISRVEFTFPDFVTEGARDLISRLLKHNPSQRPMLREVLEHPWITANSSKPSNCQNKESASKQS

[23] = molecular target: Mitogen-activated protein kinase 8 (Homo sapiens, UniProt P45983); format: functional;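 note: value comes from one member of a kinome-wide kinase profiling panel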

SMILES | AC50 [1] | Ki [2] | Ki [3] | Ki [4] | Ki [5] | Ki [6] | Ki [7] | Ki [8] | Ki [9] | Ki [10] | Ki [11] | Ki [12] | Ki [13] | Ki [14] | Ki [15] | Ki [16] | Ki [17] | Ki [18] | Ki [19] | Ki [20] | also measured
O=C1/C(=C\c2cccc(O)c2O)SC(=S)N1Cc1ccccc1 | 1.26 µM (active) |  |  |  |  |  |  |  |  |  |  |  |  |  |  |  |  |  |  |  | 
CC(C)(C)c1cc[n+](C2=C([N-]S(=O)(=O)c3cccs3)C(=O)c3ccccc3C2=O)cc1 | 3.18 µM (active) |  |  |  |  |  |  |  |  |  |  |  |  |  |  |  |  |  |  |  | 
COc1c(-c2nc3ccccc3[nH]2)c(O)cc2oc(C)cc(=O)c12 |  | 2 µM (active) | > 2.51 µM (inactive) | 0.316 µM (active) | 0.398 µM (active) | 1.58 µM (active) | 0.398 µM (active) | 2 µM (active) | 2.51 µM (active) | 0.501 µM (active) | > 3.98 µM (inactive) | 1.26 µM (active) | 3.16 µM (active) | 1.26 µM (active) | 1 µM (active) | 1.26 µM (active) | 316 nM (active) | 0.631 µM (active) | 0.126 µM (active) | 0.398 µM (active) | Ki [21]: 2.51 µM (active); Ki [22]: 0.251 µM (active); Ki [23]: 0.631 µM (active)
COC(=O)c1c(N)nc2ccccn12 |  | 79.4 µM (active) |  | 20 µM (active) | > 100 µM (inactive) | 6.31 µM (active) | 20 µM (active) |  | 50.1 µM (active) | 63.1 µM (active) |  | 50.1 µM (active) | 39.8 µM (active) | 25.1 µM (active) |  | 63.1 µM (active) |  | 31.6 µM (active) | 79.4 µM (active) |  | Ki [21]: 31.6 µM (active); Ki [22]: > 63.1 µM (inactive); Ki [23]: 7.94 µM (active)
Cc1ccc(F)c(NC(=O)Nc2ccc(-c3cccc4[nH]nc(N)c34)cc2)c1 [LINIFANIB] |  |  | > 2.51 µM (inactive) |  |  |  |  | > 6.31 µM (inactive) |  |  | > 3.98 µM (inactive) |  |  |  | > 3.98 µM (inactive) |  | > 3160 nM (inactive) |  |  | > 6.31 µM (inactive) | 
